Values belong to the molecule of their own block, whether it stands above or below them.
Legend:
[1] = test system: rat; set-up: method as in May et al, 2011; Fielden et al, 2015; details: ref May et al, 2011; Fielden et al, 2015; cited from earlier work
[2] = test system: CatD; set-up: method as in Fielden et al, 2015; details: ref Fielden et al, 2015; cited from earlier work
[3] = test system: APP‐transgenic mice; set-up: method as in Beckmann et al, 2016; Villarreal et al, 2017; details: ref Beckmann et al, 2016; Villarreal et al, 2017; cited from earlier work
[4] = test system: C57/BL6 mice; assay: Hair depigmentation study, 8 weeks dosing; assay type: in vivo, mouse; details: for % Aβ40 in brain relative to vehicle alone: steady state

SMILES: CC1(C#Cc2cnc3c(c2)[C@]2(COC(N)=N2)c2cc(-c4cccnc4F)ccc2O3)COC1 [AMG‐8718]
retinal pathology in the rat [1]: retinal degeneration
CatD selectivity in vitro [2]: > 3,000 fold

SMILES: C[C@@]1(c2cc(-c3cncnc3)c(F)cc2F)CCSC(N)=N1 [LY2811376]
retinal pathology in the rat [1]: retinal degeneration

start of hair depigmentation ([4]; C57/BL6 mice): 2–3 weeks
hair depigmentation / change in hair color ([4]; male C57/BL6 mice, 8 weeks oral once daily): obvious hair depigmentation in all mice
SMILES: Cc1cc(C#N)cnc1C(=O)Nc1ccc(F)c([C@]2(C)CO[C@@](C)(C(F)(F)F)C(N)=N2)c1 [NB‐360]
CMH events [3]: No CMH events were observed
% Aβ40 in brain relative to vehicle alone ([4]; Dose 9 mg/kg): 66%
% Aβ40 in brain relative to vehicle alone ([4]; Dose 45 mg/kg): 32%

SMILES: CN1C(=N)N[C@](C)(c2cc(NC(=O)c3ccc(F)cn3)ccc2F)CS1(=O)=O [verubecestat]
CMH events [3]: No CMH events were observed
